Assay [1] has as its target T1, full-length human PDE4D5 isozyme (Homo sapiens, UniProt Q08499).
T1 construct: The full-length human PDE4D5 isozyme; His6 (N); TEV cleavage site (N); made in house; host or cells: baculovirus infected insect cells (unpurified lysate)
As to the kind of experiment: PDE4 IC50 determination by Scintillation Proximity Assay, PDE4D5. Format: biochemical. The method in brief: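 Unpurified His6-tagged full-length human PDE4D5 from baculovirus-infected insect cell lysate, 0.083 μl glycerol stock/ml, hydrolysed [3H]cAMP in Tris pH 7.5/MgCl/EGTA buffer, 30 min at 30°. ZnSO4/SPA beads stop; [3H]AMP counted. Controls: DMSO and roflumilast; 11-point duplicate curves, nonlinear-regression IC50.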
For orientation: Scintillation proximity formats need no separation of bound from free tracer.

For a further assay, the target named is T2, PDE4D (Homo sapiens, UniProt Q08499).
T2 construct: PDE4D: The catalytic domain of human PDE4B from S3 16-V692; His6 (N); thrombin cleavage site (N); made in house; host or cells: E. coli
T2 sequence (Q08499 380-756): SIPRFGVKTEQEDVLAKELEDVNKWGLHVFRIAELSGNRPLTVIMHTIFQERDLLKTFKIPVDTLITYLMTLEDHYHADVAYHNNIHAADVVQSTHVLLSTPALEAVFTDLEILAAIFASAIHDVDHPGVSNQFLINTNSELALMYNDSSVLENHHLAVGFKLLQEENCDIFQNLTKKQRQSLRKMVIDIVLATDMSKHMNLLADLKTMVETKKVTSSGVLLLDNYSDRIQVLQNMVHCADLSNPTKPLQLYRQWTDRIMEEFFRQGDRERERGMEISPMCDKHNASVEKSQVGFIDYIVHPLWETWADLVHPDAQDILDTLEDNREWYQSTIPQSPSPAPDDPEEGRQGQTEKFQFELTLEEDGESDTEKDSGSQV
As to the kind of experiment: PDE4 IC50 determination by Scintillation Proximity Assay, PDE4D. Format: biochemical. The method in brief: (§1)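 Enzyme was added to compound and [^3H]cAMP, then incubated 30 min at 30° (PDE4B 80 ng/ml; PDE4D 4 ng/ml). Product [^3H]AMP bound to SPA beads and was counted. IC50 was fitted by non-linear regression against DMSO and roflumilast controls.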

The target of assay [2] is T3, PDE4B: The catalytic domain of human PDE4B from S152-S528 (Homo sapiens, UniProt Q07343).
T3 construct: His6 (N); thrombin cleavage site (N); made in house; host or cells: E. coli
T3 sequence (Q07343 with tags, fused parts or gaps): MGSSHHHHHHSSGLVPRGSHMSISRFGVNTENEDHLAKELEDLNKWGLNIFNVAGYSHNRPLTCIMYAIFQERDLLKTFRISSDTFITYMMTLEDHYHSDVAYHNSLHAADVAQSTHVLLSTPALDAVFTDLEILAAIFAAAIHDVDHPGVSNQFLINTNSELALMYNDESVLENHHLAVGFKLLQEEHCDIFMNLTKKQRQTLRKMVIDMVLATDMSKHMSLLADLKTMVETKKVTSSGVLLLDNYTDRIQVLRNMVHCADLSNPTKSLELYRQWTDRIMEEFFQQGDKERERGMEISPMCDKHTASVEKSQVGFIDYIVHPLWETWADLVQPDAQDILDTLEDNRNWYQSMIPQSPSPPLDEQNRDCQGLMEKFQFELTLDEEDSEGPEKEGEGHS
As to the kind of experiment: PDE4 IC50 determination by Scintillation Proximity Assay, PDE4B. It counts as biochemical. The method in brief: as §1

The subject of assay [3] is TNF alpha production in LPS-stimulated human blood (Buffy coat). Kind of assay: TNF alpha production by stimulation with LPS in whole blood cultures. It counts as cell-based. The protocol:
Compounds were assayed to generate IC50 numbers as described in Example 54, using the following assay protocol (see Tables 3B and 4B for compounds and results).
Protocol • 1) Obtained 20 mM DMSO aliquots of desired concentrations of compounds (see Tables 3B and 4B for compounds tested and results). Placed 2 μl/well compound in DMSO in the top row of the dilution plate. Added 98 μl of RPMI 1640 media w/2.5% heat inactivated FBS.
2) Made the same media with 2% DMSO in it. Added 60 μl/well to well to make compound titration. Took 30 μl of top row and did a 1:3 dilution down the plate. In column 11 added 4 wells of 50 μM roflumilast and piclamilast. In column 12 added 2% DMSO media.
3) Transfered 20 μl/well into assay plates in duplicate.
4) Obtained human Buffy coat.
5) Diluted blood with 7 volumes of RPMI 1640 media with 1% P/S and 2.5% heat inactivated FBS (a 1:8 dilution)
6) Added160 μl/well of diluted blood to the assay plates.
7) Incubated for 1 hour at 37 degrees 5% CO2
8) Diluted LPS (which was already diluted to 1 mg/ml in PBS, 20 μl aliquots frozen −20 C.) to 10× desired final concentration to make a […] dilution (final concentration should be 100 ng/ml).
9) After 1 hour incubation added 20 μl/well of LPS to plates. A non-LPS treated background was also prepared. Samples were put on the shaker for a one minute 900 rpm.
10) Incubated for 4 hours in incubator.
11) After incubation, put on the shaker for a one minute 900 rpm and spun plate at 100 g for 10 minutes, Decel 5.
12) Carefully pipetted the top 75 μl supernatant into a new plate. Samples were frozen as needed.
Biosource hu-TNF ALPHA ELISA
• REAGENTS USED • DPBS 10×: VWR45000-428 (dilute 1:10 with Millipore Water) • TWEEN 20: FISHER BP337-500 • CAPTURE AND DETECTION ANTIBODIES: R&D DY510E • STREP-HRP: Biosource part SNN4004X • COLOR REAGENTS: R&D DY994 • STOP SOLUTION: from chemistry, or R&D DY999 • 1) Thawed samples to RT as needed. • 2) Added 50 μl Incubation buffer/well. • 3) Added 50 μl blood samples +50 μl Diluent buffer • 4) Incubated 2 hours at room temp. • 5) Washed the plate 4× with 300 μl/well wash buffer with microfill. Wash buffer was DPBS with 0.05% Tween pH 7.2-7.4 • 6) Added 100 μl biotinylated anti-TNFalpha • 7) Incubateed 1 hours at room temp. • 8) Washed the plate 4× with 300 μl/well wash buffer with microfill. Wash buffer was DPBS with 0.05% Tween pH 7.2-7.4 • 9) Added^100 μl Streptavidin-HRP working solution • 10) Incubated for 30 minutes at room temp. • 11) Washed the plate 4× with 300 μl/well wash buffer with microfill. Wash buffer was DPBS with 0.05% Tween pH 7.2-7.4 • 12) Added 100 μl Chromagen • 13) Incubated in the dark for 30 minutes until the blue color developed satisfactorily. • 14) Added 100 μl/well stop solution (2 N H2SO4). • 15) Read plate on WallacVictor at 450 nm for 0.1 sec/well

Assay [4] has as its target T4, full-length human PDE4B2 isozyme (Homo sapiens, UniProt Q07343).
T4 construct: The full-length human PDE4B2 isozyme; His6 (N); TEV cleavage site (N); made in house; host or cells: baculovirus infected insect cells (unpurified lysate)
As to the kind of experiment: PDE4 IC50 determination by Scintillation Proximity Assay, PDE4B2. It counts as biochemical. Put shortly: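 Unpurified His6-TEV-tagged full-length human PDE4B2 from baculovirus-infected insect cell lysate (2.5 μl of 50% glycerol stock/ml) hydrolysed [3H]cAMP in 50 mM Tris pH 7.5, 8.3 mM MgCl, 1.7 mM EGTA, 0.01% BSA for 30 min at 30°. Stopped with SPA beads in 18 mM ZnSO4; [3H]AMP scintillation counted, IC50 by non-linear regression.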

The mark [5] stands for this setting: Table 1B, Formula I compounds, read-out: IC50 PDE4D5.
Where [6] appears, read: Table 1B, Formula I compounds, read-out: IC50 PDE4D.
Setting [7] is: Table 1B, Formula I compounds, read-out: IC50 PDE4B.
Where [8] appears, read: Homo sapiens, Table 1B, Formula I compounds, read-out: IC50 h TNFα.
The mark [9] stands for this setting: Table 1B, Formula I compounds, read-out: IC50 PDE4B2.
Setting [10] is: human whole blood, LPS 100 ng/ml, read-out: IC 50 vs. indicated assay h TNFα.
Where [11] appears, read: second part of Table 2B (2-23 to 2-103), column 5, column is PDE4D in first part, read-out: IC 50 vs. indicated assay h TNFα.
[12] abbreviates: second part of Table 2B (2-23 to 2-103), column 3, column is PDE4B in first part, read-out: IC 50 vs. indicated assay h TNFα.
Where [13] appears, read: second part of Table 2B (2-23 to 2-103), column 4, column is PDE4B2 in first part, read-out: IC 50 vs. indicated assay h TNFα.

Each structure is given as a SMILES string. Read-outs that look alike come from different tables or passages of the source.

T4 sequence (Q07343 1-564 isoform Q07343-2): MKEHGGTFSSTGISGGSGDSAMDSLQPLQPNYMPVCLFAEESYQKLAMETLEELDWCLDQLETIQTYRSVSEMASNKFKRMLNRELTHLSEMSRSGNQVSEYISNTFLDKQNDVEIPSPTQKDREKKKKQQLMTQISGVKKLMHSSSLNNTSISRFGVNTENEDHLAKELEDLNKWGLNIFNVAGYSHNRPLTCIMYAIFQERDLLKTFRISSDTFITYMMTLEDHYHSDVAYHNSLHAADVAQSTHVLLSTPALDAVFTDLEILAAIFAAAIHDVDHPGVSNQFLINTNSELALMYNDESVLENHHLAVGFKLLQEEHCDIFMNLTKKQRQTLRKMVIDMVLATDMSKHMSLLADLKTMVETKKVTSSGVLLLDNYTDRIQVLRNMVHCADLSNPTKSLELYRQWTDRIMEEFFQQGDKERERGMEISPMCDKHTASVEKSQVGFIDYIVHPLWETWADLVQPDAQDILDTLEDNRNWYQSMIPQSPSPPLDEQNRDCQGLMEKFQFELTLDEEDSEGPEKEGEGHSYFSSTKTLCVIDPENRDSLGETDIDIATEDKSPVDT
T1 sequence (Q08499 1-745 isoform Q08499-6): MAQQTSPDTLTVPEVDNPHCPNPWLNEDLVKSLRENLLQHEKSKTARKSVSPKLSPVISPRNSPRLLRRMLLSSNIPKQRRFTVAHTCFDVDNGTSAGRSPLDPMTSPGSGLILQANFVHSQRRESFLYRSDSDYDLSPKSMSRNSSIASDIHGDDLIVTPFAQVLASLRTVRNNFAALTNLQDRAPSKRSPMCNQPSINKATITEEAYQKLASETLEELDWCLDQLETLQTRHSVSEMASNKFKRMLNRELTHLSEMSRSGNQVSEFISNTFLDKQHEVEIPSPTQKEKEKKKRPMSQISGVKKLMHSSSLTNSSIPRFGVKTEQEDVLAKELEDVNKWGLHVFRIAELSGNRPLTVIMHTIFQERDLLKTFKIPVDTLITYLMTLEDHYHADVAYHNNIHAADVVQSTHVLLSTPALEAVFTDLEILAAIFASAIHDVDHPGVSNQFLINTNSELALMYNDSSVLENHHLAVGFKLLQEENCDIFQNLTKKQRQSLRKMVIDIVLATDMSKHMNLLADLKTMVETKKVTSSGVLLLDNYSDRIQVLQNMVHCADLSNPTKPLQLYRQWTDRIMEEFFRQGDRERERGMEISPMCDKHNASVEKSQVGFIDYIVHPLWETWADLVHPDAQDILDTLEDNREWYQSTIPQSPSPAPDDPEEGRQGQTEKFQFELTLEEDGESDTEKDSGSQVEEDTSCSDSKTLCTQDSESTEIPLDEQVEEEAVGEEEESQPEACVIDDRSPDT

Take `N#Cc1c(Nc2ccccc2)sc(C(=O)c2ccc(Cl)cc2)c1N` [Compound 1-20, 4-Amino-5-(4-chloro-benzoyl)-2-phenylamino-thiophene-3-carbonitrile]: the IC50 (in assay [1] (setting [5]); on PDE4D (setting [6]); in assay [2] (setting [7]); in assay [3] (setting [8]); in assay [4] (setting [9])) was less than 10 µM throughout.
Turning to `COc1ccc(OC)c(C(=O)c2sc(NC3CCCC3)c(C#N)c2N)c1` [Compound 1-40], the IC50 in assay [1] (setting [5]) was less than 10 µM; on PDE4D (setting [6]), less than 10 µM; in assay [2] (setting [7]) it was less than 10 µM; in assay [3] (setting [8]), greater than 10 µM; in assay [4] (setting [9]), less than 10 µM.
As to `COc1ccc(Nc2sc(C(=O)c3ccccc3Cl)c(N)c2C#N)cc1` [Compound 1-110, 4-Amino-5-(2-chloro-benzoyl)-2-(4-methoxy-phenylamino)-thiophene-3-carbonitrile], the IC50 (in assay [1] (setting [5]); at PDE4D (setting [6]); in assay [2] (setting [7]); in assay [3] (setting [8]); in assay [4] (setting [9])) was less than 10 µM throughout.
Turning to `CC(C)CNc1sc(C(=O)c2cc(-c3ccccc3)no2)c(N)c1C#N` [Compound 1-209, 4-Amino-2-isobutylamino-5-(3-phenyl-isoxazole-5-carbonyl)-thiophene-3-carbonitrile], the IC50 in assay [1] (setting [5]) is less than 10 µM; on PDE4D (setting [6]) it was less than 10 µM; in assay [2] (setting [7]) it was less than 10 µM; in assay [3] (setting [8]), greater than 10 µM; in assay [4] (setting [9]), less than 10 µM.
Turning to `Cc1nc(-c2cnccn2)sc1C(=O)c1sc(NC2CCCC2)c(C#N)c1N` [Compound 1-219, 4-Amino-2-cyclopentylamino-5-(4-methyl-2-pyrazin-2-yl-thiazole-5-carbonyl)-thiophene-3-carbonitrile], the IC50 (in assay [1] (setting [5]); at PDE4D (setting [6]); in assay [2] (setting [7]); in assay [3] (setting [8]); in assay [4] (setting [9])) was less than 10 µM each time.
In the case of `N#Cc1c(NC2CCCC2)sc(C(=O)c2cc(-c3ccc([N+](=O)[O-])cc3)no2)c1N` [Compound 1-220, 4-Amino-2-cyclopentylamino-5-[3-(4-nitro-phenyl)-isoxazole-5-carbonyl]-thiophene-3-carbonitrile], the IC50 is greater than 10 µM in assay [1] (setting [5]); greater than 10 µM at PDE4D (setting [6]); less than 10 µM in assay [2] (setting [7]); greater than 10 µM in assay [3] (setting [8]); less than 10 µM in assay [4] (setting [9]).
Consider `CCC(C)Nc1sc(C(=O)c2cc(-c3ccccc3)no2)c(N)c1C#N` (stereo not drawn) [Compound 1-222, 4-Amino-2-sec-butylamino-5-(3-phenyl-isoxazole-5-carbonyl)-thiophene-3-carbonitrile], for which the IC50 in assay [1] (setting [5]) was greater than 10 µM; at PDE4D (setting [6]), less than 10 µM; in assay [2] (setting [7]) it was less than 10 µM; in assay [3] (setting [8]), greater than 10 µM; in assay [4] (setting [9]) it was less than 10 µM.
Consider `Cc1c(NC2CCCC2)sc(C(=O)c2cc(-c3ccccc3)no2)c1N` [Compound 1-240, (3-Amino-5-cyclopentylamino-4-methyl-thiophen-2-yl)-(3-phenyl-isoxazol-5-yl)-methanone], for which the IC50 in assay [1] (setting [5]), in assay [2] (setting [7]), in assay [3] (setting [8]) and in assay [4] (setting [9]) was less than 10 µM throughout.
In the case of `CCc1c(NC2CCCC2)sc(C(=O)c2cc(-c3ccccc3)no2)c1N` [Compound 1-241, (3-Amino-5-cyclopentylamino-4-ethyl-thiophen-2-yl)-(3-phenyl-isoxazole-5-yl)-methanone], the IC50 in assay [1] (setting [5]) was greater than 10 µM; in assay [2] (setting [7]) it was less than 10 µM; in assay [3] (setting [8]) it was greater than 10 µM; in assay [4] (setting [9]), less than 10 µM.
As for `COc1ccccc1Nc1sc(C(=O)c2cc(-c3ccccc3)no2)c(N)c1C#N` [Compound 1-242], the IC50 in assay [1] (setting [5]), in assay [2] (setting [7]), in assay [3] (setting [8]) and in assay [4] (setting [9]) was less than 10 µM in each case.
Take `CCC(C)Nc1sc(C(=O)c2cc(-c3ccc(Cl)c(Cl)c3)no2)c(N)c1C(N)=O` (stereo not drawn) [Compound 1-249, 4-Amino-2-sec butylamino-5-[3-(3,4-dichloro-phenyl)-isoxazole-5-carbonyl]-thiophene-3-carboxylic acid amide]: the IC50 in assay [1] (setting [5]) was greater than 10 µM; at PDE4D (setting [6]), less than 10 µM; in assay [2] (setting [7]), less than 10 µM; in assay [3] (setting [8]), greater than 10 µM.
In the case of `NC(=O)c1c(N)sc(C(=O)c2cc(-c3ccccc3)no2)c1N` [Compound 1-255, 2,4-Diamino-5-(3-phenyl-isoxazole-5-carbonyl)-thiophene-3-carboxylic acid amide], the IC50 in assay [1] (setting [5]), in assay [3] (setting [8]) and in assay [4] (setting [9]) was greater than 10 µM in each case.
With `Nc1nc(NC2CCCC2)sc1C(=O)c1cc(-c2ccccc2)cs1` [Compound 2-19, (4-Amino-2-cyclopentylamino-thiazol-5-yl)-(4-phenyl-thiophen-2yl)-methanone], the IC50 was less than 10 µM in assay [1] (first part of Table 2B (2-1 to 2-22), read-out: IC 50 vs. indicated assay PDE4D5); less than 10 µM in assay [2] (first part of Table 2B (2-1 to 2-22), read-out: IC 50 vs. indicated assay PDE4B); less than 10 µM in assay [3] (setting [10]); less than 10 µM in assay [4] (first part of Table 2B (2-1 to 2-22), read-out: IC 50 vs. indicated assay PDE4B2).
Turning to `Nc1nc(Nc2ccc(C(=O)O)cc2)sc1C(=O)c1ccccc1` [Compound 2-35, 4-(4-Amino-5-benzoyl-thiazol-2-ylamino)-benzoic acid], the IC50 on PDE4D (setting [11]) is less than 10 µM; in assay [2] (setting [12]), less than 10 µM; in assay [3] (setting [10]), greater than 10 µM; in assay [4] (setting [13]) it was less than 10 µM.
Turning to `Nc1nc(NC2CCCC2)sc1C(=O)c1ccc(Oc2ccccc2)cc1` [Compound 2-76, (4-Amino-2-cyclopentylamino-thiazol-5-yl)-(4-phenoxy-phenyl)-methanone], the IC50 on PDE4D (setting [11]) was less than 10 µM; in assay [2] (setting [12]), less than 10 µM; in assay [3] (setting [10]), greater than 10 µM; in assay [4] (setting [13]), less than 10 µM.

Values taken from patent US7585859B2, “PDE4B inhibitors and uses therefor” (Plexxikon, Inc., priority 2004, dated 2009).
